Experimental data taken from ChEMBL document CHEMBL1201862, “PubChem BioAssay data set” (2004).
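Assay format: 96-well plates, 48-hour exposure. Here, GI50 denotes the concentration required for 50% inhibition of growth.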 The source made the active and inactive calls. Cut-off read from the data, not from the text of the source: active = GI50 up to about 1.1 µM and inactive = higher.

Legend:
Assay in all cases: growth of human tumour cells (NCI), 48 h
[1] = tested on: A549
[2] = tested on: OVCAR-5
[3] = tested on: RXF 393
[4] = tested on: 786-0
[5] = tested on: TK-10
[6] = tested on: CAKI-1
[7] = tested on: BT-549
[8] = tested on: MDA-MB-435
[9] = tested on: IGROV-1
[10] = tested on: NCI-H460
[11] = tested on: SK-MEL-5
[12] = tested on: SN12C
[13] = tested on: SNB-19
[14] = tested on: SK-OV-3
[15] = tested on: CCRF-CEM
[16] = tested on: HCT-116
[17] = tested on: OVCAR-8
[18] = tested on: KM12
[19] = tested on: HL-60

Measured: GI50

Cc1c(NC(=O)CSC(=S)N(C)C)c(=O)n(-c2ccccc2)n1C
inactive: [1] > 100 µM | [2] > 100 µM | [3] > 100 µM | [4] > 100 µM | [5] > 100 µM | [6] > 100 µM | [7] > 100 µM | [8] > 100 µM | [9] > 100 µM | [10] > 100 µM | [11] > 100 µM | [12] > 100 µM | [13] > 100 µM | [14] > 100 µM | [15] > 100 µM | [16] > 100 µM | [17] > 100 µM | [18] > 100 µM

CSC(SC)(C(=O)O)c1cc(-c2c(Cl)cccc2Cl)no1
inactive: [1] 55.1 µM | [2] 60.1 µM | [4] 39.5 µM | [5] > 100 µM | [6] 48.4 µM | [7] 28.8 µM | [8] 63.4 µM | [9] 30.4 µM | [10] 34.9 µM | [11] 33.7 µM | [12] 62.1 µM | [13] > 100 µM | [14] > 100 µM | [15] 26.4 µM | [16] 26.9 µM | [17] > 100 µM

CCC(=O)NCCc1c[nH]c2ccc(OC)cc12
inactive: [1] > 100 µM | [2] > 100 µM | [3] > 100 µM | [4] > 100 µM | [5] > 100 µM | [6] > 100 µM | [7] > 100 µM | [8] > 100 µM | [9] > 100 µM | [10] > 100 µM | [11] > 100 µM | [12] > 100 µM | [13] > 100 µM | [14] > 100 µM | [15] > 100 µM | [16] > 100 µM | [17] > 100 µM | [18] > 100 µM

COc1ccc(/C=C/c2cc(OC)c(OC)c(OC)c2)cc1O[Si](C)(C)C(C)(C)C
inactive: [1] 14 µM | [2] 33.5 µM | [3] 3.09 µM | [4] 10.4 µM | [5] 27.1 µM | [6] 41.9 µM | [7] 12.1 µM | [8] 2.26 µM | [9] 8.95 µM | [10] 4.15 µM | [11] 1.98 µM | [12] 7.16 µM | [13] 3.44 µM | [14] 52.7 µM | [16] 2.77 µM | [17] 2.74 µM

N#C/C(C(=O)Nc1ccccc1)=C(/N)N1CCCCC1
inactive: [1] > 100 µM | [2] > 100 µM | [4] > 100 µM | [6] > 100 µM | [7] > 100 µM | [8] 84.9 µM | [9] 91 µM | [10] > 100 µM | [11] > 100 µM | [12] > 100 µM | [13] > 100 µM | [14] > 100 µM | [15] > 100 µM | [16] > 100 µM | [17] > 100 µM | [18] > 100 µM

COc1ccc(-n2cnn3c(=O)c4cn[nH]c4nc23)cc1
inactive: [1] > 10 µM | [2] > 10 µM | [19] > 10 µM | [4] > 10 µM | [5] > 10 µM | [7] > 10 µM | [8] > 10 µM | [10] > 10 µM | [11] > 10 µM | [12] > 10 µM | [13] > 10 µM | [14] 1.49 µM | [15] > 10 µM | [16] > 10 µM | [17] > 10 µM | [18] > 10 µM

O=C(CC(c1ccccc1)C(C(=O)c1ccncc1)C(CC(=O)c1ccncc1)c1ccccc1)c1ccncc1 (stereo not drawn)
inactive: [1] 26.7 µM | [2] > 100 µM | [19] > 100 µM | [4] 68.2 µM | [5] 47.5 µM | [6] > 100 µM | [7] 18.5 µM | [8] > 100 µM | [9] 28.4 µM | [10] 89.5 µM | [11] > 10 µM | [13] 39 µM | [14] 29.2 µM | [15] > 100 µM | [16] > 100 µM | [17] 35.6 µM | [18] > 100 µM

Cc1nc(N)c(N2CCN(S(N)(=O)=O)CC2)c(O)n1
inactive: [1] > 100 µM | [2] > 100 µM | [19] > 100 µM | [4] > 100 µM | [5] > 100 µM | [7] > 100 µM | [8] > 100 µM | [10] > 100 µM | [12] > 100 µM | [13] > 100 µM | [15] > 100 µM | [16] > 100 µM | [17] > 100 µM | [18] > 100 µM

COc1cc(OC)cc(-n2c(N)c(-c3nc4ccccc4n3C)c3ccc([N+](=O)[O-])cc3c2=O)c1
inactive: [1] > 100 µM | [4] 64.7 µM | [5] > 100 µM | [6] > 100 µM | [7] > 100 µM | [8] > 100 µM | [10] > 100 µM | [11] > 100 µM | [12] 94.4 µM | [13] 40.6 µM | [16] > 100 µM | [17] 32 µM | [18] 35.6 µM

O=C1CCC2(c3ccc(F)cc3)Nc3ncncc3N12 (stereo not drawn)
inactive: [1] > 10 µM | [2] > 10 µM | [4] > 10 µM | [5] > 10 µM | [7] > 10 µM | [8] > 10 µM | [9] > 10 µM | [10] > 10 µM | [12] > 10 µM | [13] > 10 µM | [15] > 10 µM | [17] > 10 µM | [18] > 10 µM

O=C1CSC(c2cccc(Cl)c2)N1c1ccc(-c2ccc(-n3c(-c4ccccc4)nc4ccccc4c3=O)cc2)cc1 (stereo not drawn)
inactive: [1] 54.2 µM | [2] 64.6 µM | [19] 21.8 µM | [4] 43.6 µM | [5] 32.6 µM | [6] > 100 µM | [7] 28.5 µM | [8] 52.1 µM | [9] 77.4 µM | [10] 32.9 µM | [11] 25.5 µM | [12] 62.4 µM | [13] > 100 µM | [14] > 100 µM | [15] 29.9 µM | [16] 45.6 µM | [17] 46.1 µM | [18] 22.3 µM

O=c1c2ccccc2n2c(-c3ccc(O)cc3)nnc2n1-c1ccccc1
inactive: [1] 20.5 µM | [2] 96.6 µM | [19] 62.8 µM | [3] 20.5 µM | [4] 17.9 µM | [5] 26.5 µM | [6] 29.6 µM | [8] 18.5 µM | [9] 18.1 µM | [10] 17.8 µM | [11] 18.5 µM | [12] 17.1 µM | [13] 20.4 µM | [14] 20.6 µM | [15] 14.8 µM | [16] 20.9 µM | [17] 30.8 µM | [18] 49.2 µM
